Reference: patent US10399937B2, “Ionizable cationic lipid for RNA delivery” (Arcturus Therapeutics, Inc., priority 2013, dated 2019)

Key:
[1] = pKa of the cationic lipid (Table 1); assay type: physicochemical
Factor VII = test: In vivo mouse Factor VII silencing (siRNA in liposome formulations with the cationic lipid); parameters: species or system C57BL/6 mice; settings: C57BL6 mice; for ability to knockdown Factor VII in mouse plasma (FIGS. 1 and 2): 0.3 mg/kg, compared to controls (MC3, NC1, ATX-547, ATX-003); for Factor VII knockdown in mouse plasma (FIGS. 3 and 4): second series with MC3, NC1, ATX-547, ATX-004, ATX-006, ATX-010, ATX-001
Experimental: Using a liver-directed in vivo screen of the liposome libraries, a series of compounds were tested that facilitate high levels of siRNA mediated gene silencing in hepatocytes, the cells comprising the liver parenchyma. Factor VII, a blood clotting factor, is a suitable target gene for assaying functional siRNA delivery to liver. Because this factor is produced specifically in hepatocytes, gene silencing indicates successful delivery to parenchyma, as opposed to delivery to the cells of the reticulo-endothelial system (e.g., Kupffer cells). Furthermore, Factor VII is a secreted protein that can be readily measured in serum, obviating the need to euthanize animals. Silencing at the mRNA level can be readily determined by measuring levels of protein. This is because the protein's short half-life (2-5 hour). C57BL/6 mice (Charles River Labs) received either saline or siRNA in liposome formulations via tail vein injection at a volume of 0.006 ml/g. At 48 h after administration, animals were anesthetized by isofluorane inhalation and blood was collected into serum separator tubes by retroorbital bleed. Serum levels of Factor VII protein were determined in samples using a chromogenic assay (Biophen FVII, Aniara Corporation) according to manufacturers' protocols. A standard curve was generated using serum collected from saline-treated animals.
Compositions with siRNA directed to […] were formulated with ATX-001, ATX-002, ATX-003, and ATX-547, and comparator samples NC1 and MC3 (Alnylam). These were injected into animals at 0.3 mg/kg and at 1 mg/kg. The siRNA encapsulated by MC3 (0.3 mg/kg), NC1 (0.3 mg/kg), ATX-547 (0.3 mg/kg), ATX-001 (0.3 and 1.0 mg/kg), ATX-002 (0.3 and 1.0 mg/kg), and ATX-003 (0.3 and 1.0 mg/kg) was measured for the ability to knockdown Factor VII in mouse plasma following administration of the siRNA formulation to C57BL6 mice.
The siRNA encapsulated MC3 (0.3 and 1.5 mg/kg), NC1 (0.3 mg/kg), ATX-547 (0.1 and 0.3 mg/kg), ATX-004 (0.3), ATX-006 (0.3 and 1.0 mg/kg), ATX-010 (0.3 mg/kg), and ATX-001 (0.3 and 1.5 mg/kg), was measured for Factor VII knockdown in mouse plasma following administration of the siRNA formulation to C57BL6 mice. […] The knockdown activity of the exemplary compounds is shown for 0.3 mg/kg or at 0.05 mg/kg for ATX-018, ATX-019, and ATX-020 (Table 1).

Row | pKa [1] | SMILES | ability to knockdown Factor VII in mouse plasma (FIGS. 1 and 2) (Factor VII) | Factor VII knockdown in mouse plasma (FIGS. 3 and 4) (Factor VII)
1 | 9.5 | CCCCCC/C=C\COC(=O)CCCCCCCN(CCCCCCCC(=O)OC/C=C\CCCCCC)C(=O)CSCCCN(C)CC [ATX-007] | – | –
2 | 10.3 | CCCCCC/C=C\COC(=O)CCCCCCCN(CCCCCCCC(=O)OC/C=C\CCCCCC)C(=O)CSCCCN(CC)CC [ATX-008] | – | –
3 | 8.8 | CCCCCC/C=C\COC(=O)CCCCCCCN(CCCCCCCC(=O)OC/C=C\CCCCCC)C(=O)SCCN(C)CC [ATX-009] | – | –
4 | 9.6 | CCCCCC/C=C\COC(=O)CCCCCCCN(CCCCCCCC(=O)OC/C=C\CCCCCC)C(=O)SCCN(CC)CC [ATX-010] | – | most effective
5 | 9.4 | CCCCCC/C=C\COC(=O)CCCCCCCN(CCCCCCCC(=O)OC/C=C\CCCCCC)C(=O)SCCCN(C)CC [ATX-011] | – | –
6 | 10.2 | CCCCCC/C=C\COC(=O)CCCCCCCN(CCCCCCCC(=O)OC/C=C\CCCCCC)C(=O)SCCCN(CC)CC [ATX-012] | – | –

The next lines start with the molecule.

Row | SMILES | pKa [1] | ability to knockdown Factor VII in mouse plasma (FIGS. 1 and 2) (Factor VII) | Factor VII knockdown in mouse plasma (FIGS. 3 and 4) (Factor VII)
7 | CCCCCC/C=C\COC(=O)CCCCCCCN(CCCCCCCC(=O)OC/C=C\CCCCCC)C(=O)CSCCN(C)C [ATX-001] | 8.9 | most effective | most effective
8 | CCCCCC/C=C\COC(=O)CCCCCCCN(CCCCCCCC(=O)OC/C=C\CCCCCC)C(=O)SCCN(C)C [ATX-002] | 8.7 | most effective | –
9 | CCCCCC/C=C\COC(=O)CCCCCCCN(CCCCCCCC(=O)OC/C=C\CCCCCC)C(=O)SCCCN(C)C [ATX-003] | 9.3 | – | –
10 | CCCCCC/C=C\COC(=O)CCCCCCCN(CCCCCCCC(=O)OC/C=C\CCCCCC)C(=O)CSCCCN(C)C [ATX-004] | 9.4 | – | –
11 | CCCCCC/C=C\COC(=O)CCCCCCCN(CCCCCCCC(=O)OC/C=C\CCCCCC)C(=O)CSCCN(C)CC [ATX-005] | 9 | – | –
12 | CCCCCC/C=C\COC(=O)CCCCCCCN(CCCCCCCC(=O)OC/C=C\CCCCCC)C(=O)CSCCN(CC)CC [ATX-006] | 9.8 | – | –
